According to patent US12324893B2, “Triptan microporation delivery system” (PassPort Technologies, Inc., priority 2019, dated 2025):
Where two headings read alike, the source gives them in different places.

What was measured:
[1] = Administration route study in guinea pigs (Example 5); type: in vivo; conditions: for AUC / Cmax / Tmax: guinea pig, blood
Method: This example describes an administration route study in guinea pigs using the same method mentioned in Example 4. In this study, base refers to Zomitriptan.
In this study, five groups of guinea pigs were tested under the following conditions: (1) Group 1 (10 mg base/4 ml, oral route); (2) Group 2 (5 mg base/2 ml, oral route); (3) Group 3 (2 mg base/4 mL, oral route); (4) Group 4 (2.0 mg base/cm^2, transdermal microporation); and (5) Group 5 (2 mg/200 μL, SubQ). The given bioavailability of Tables 6 is relative bioavailability against subcutaneous injection.

[2] = Effect of filament density, poration energy and filament array size on PK profile (Examples 7-9); set-up: species or system guinea pigs; conditions: guinea pig, in vivo; for bioavailability: sc, relative bioavailability against SC injection, read-out: Bioavailability ± SE; for AUC / Cmax / Tmax: topical or ocular
Method: This example describes various effects of filament density. To investigate the effect of filament density on PK profile and side effects (pain by poration and skin irritation), these studies were conducted. The filament density mainly affects the area to be utilized for the transfer of body fluid and ingredients in between skin and patch. The range of filament density was 100 filaments/cm^2 to 400 filaments/cm^2, and the poration energy was from 3 to 4 mJ/filament.
This example describes various effects to heating energy. The poration energy is related to the pore shape such as depth and width.
This example describes the selection of a desirable filament array size. Assuming the higher dose than 2 mg dose with the conditions 400 filaments/cm^2 filament density and 4 or 5 mJ/filament energy, filament array size may need to be made bigger. The range of dose was 0.5 to 4 mg, and the range of filament array size was 1.0 to 2.0 cm^2.

[3] = Group 1: 10 mg base/4 ml, oral route
[4] = Group 2: 5 mg base/2 ml, oral route
[5] = Group 3: 2 mg base/4 mL, oral route
[6] = topical or ocular, Group 4: 2.0 mg base/cm^2, transdermal microporation
[7] = 0.5 mg, Table 17 #1: dose 0.50 mg, 4 mJ/filament, filament array area 1.0 cm^2, 400 filaments/cm^2
[8] = 2 mg, Table 13 # 1: 100 filaments/cm^2, 3 mJ/filament, area 1.0 cm^2, patch 2.00 mg Zolmitriptan
[9] = 2 mg, Table 13 # 2: 200 filaments/cm^2, 3 mJ/filament, area 1.0 cm^2, patch 2.00 mg Zolmitriptan
[10] = 2 mg, Table 13 # 3: 400 filaments/cm^2, 3 mJ/filament, area 1.0 cm^2, patch 2.00 mg Zolmitriptan
[11] = 2 mg, Table 13 # 4: 100 filaments/cm^2, 4 mJ/filament, area 1.0 cm^2, patch 2.00 mg Zolmitriptan
[12] = 2 mg, Table 13 # 5: 200 filaments/cm^2, 4 mJ/filament, area 1.0 cm^2, patch 2.00 mg Zolmitriptan
[13] = 2 mg, Table 13 # 6: 400 filaments/cm^2, 4 mJ/filament, area 1.0 cm^2, patch 2.00 mg Zolmitriptan
[14] = 2 mg, Table 15 # 1: 400 filaments/cm^2, 2 mJ/filament, area 1.0 cm^2, patch 2.00 mg Zolmitriptan
[15] = 2 mg, Table 15 # 2: 400 filaments/cm^2, 3 mJ/filament, area 1.0 cm^2, patch 2.00 mg Zolmitriptan
[16] = 2 mg, Table 15 # 3: 400 filaments/cm^2, 4 mJ/filament, area 1.0 cm^2, patch 2.00 mg Zolmitriptan

CN(C)CCc1c[nH]c2ccc(C[C@H]3COC(=O)N3)cc12 [Zolmitriptan]
BA ([1]; Group 1: 10 mg base/4 ml, oral route, relative bioavailability against subcutaneous injection): 16.2%
BA ([1]; Group 2: 5 mg base/2 ml, oral route, relative bioavailability against subcutaneous injection): 8.3%
BA ([1]; Group 3: 2 mg base/4 mL, oral route, relative bioavailability against subcutaneous injection): 4.5%
BA ([1]; Group 4: 2.0 mg base/cm^2, transdermal microporation, relative bioavailability against subcutaneous injection): 84.2%
BA ([1]; Group 5: 2 mg/200 μL, SubQ, relative bioavailability against subcutaneous injection (reference)): 100.0%
AUC [1, 3]: 1390 ng·h/mL
Cmax [1, 3]: 910 ng/mL
Tmax [1, 3]: 26.4 min
AUC [1, 4]: 353 ng·h/mL
Cmax [1, 4]: 259 ng/mL
Tmax [1, 4]: 33.6 min
AUC [1, 5]: 77 ng·h/mL
Cmax [1, 5]: 25 ng/mL
Tmax [1, 5]: 19.8 min
AUC ([1]; sc, Group 5: 2 mg/200 μL, SubQ): 1710 ng·h/mL
Cmax ([1]; sc, Group 5: 2 mg/200 μL, SubQ): 3880 ng/mL
Tmax ([1]; sc, Group 5: 2 mg/200 μL, SubQ): 5.4 min
Cmax [1, 6]: 864 ng/mL
Tmax [1, 6]: 30 min
AUC ([1]; topical or ocular, Group 4: 2.0 mg base/cm^2, transdermal microporation (400 pores/cm^2, 5.2 mJ/filament)): 1440 ng·h/mL
bioavailability ([2]; 0.5 mg, Table 17 #1: dose 0.50 mg, 4 mJ/filament, 1.0 cm^2, 400 filaments/cm^2): 70.6 ± 4.5%
bioavailability ([2]; 2 mg, Table 13 # 1: 100 filaments/cm^2, 3 mJ/filament, 1.0 cm^2, 2.00 mg patch): 11.5 ± 0.6%
bioavailability ([2]; 2 mg, Table 13 # 2: 200 filaments/cm^2, 3 mJ/filament, 1.0 cm^2, 2.00 mg patch): 73.8 ± 8.6%
bioavailability ([2]; 2 mg, Table 13 # 3: 400 filaments/cm^2, 3 mJ/filament, 1.0 cm^2, 2.00 mg patch): 85 ± 5.6%
bioavailability ([2]; 2 mg, Table 13 # 4: 100 filaments/cm^2, 4 mJ/filament, 1.0 cm^2, 2.00 mg patch): 50.3 ± 5.5%
bioavailability ([2]; 2 mg, Table 13 # 5: 200 filaments/cm^2, 4 mJ/filament, 1.0 cm^2, 2.00 mg patch): 49.9 ± 7.7%
bioavailability ([2]; 2 mg, Table 13 # 6: 400 filaments/cm^2, 4 mJ/filament, 1.0 cm^2, 2.00 mg patch): 102 ± 13.3%
bioavailability ([2]; 2 mg, Table 15 # 1: 400 filaments/cm^2, 2 mJ/filament, 1.0 cm^2, 2.00 mg patch): 72.4 ± 10%
bioavailability ([2]; 2 mg, Table 15 # 2: 400 filaments/cm^2, 3 mJ/filament, 1.0 cm^2, 2.00 mg patch): 85 ± 5.6%
bioavailability ([2]; 2 mg, Table 15 # 3: 400 filaments/cm^2, 4 mJ/filament, 1.0 cm^2, 2.00 mg patch): 102 ± 13.3%
bioavailability ([2]; 2 mg, Table 15 # 4: 400 filaments/cm^2, 5 mJ/filament, 1.0 cm^2, 2.00 mg patch): 95.5 ± 5.3%
bioavailability ([2]; 2 mg, Table 17 # 2: dose 2.00 mg, 4 mJ/filament, 1.0 cm^2, 400 filaments/cm^2): 102 ± 13.3%
bioavailability ([2]; 3 mg, Table 17 # 3: dose 3.00 mg, 4 mJ/filament, 1.0 cm^2, 400 filaments/cm^2): 76 ± 4.9%
bioavailability ([2]; 4 mg, Table 17 # 4: dose 4.00 mg, 4 mJ/filament, 1.5 cm^2, 400 filaments/cm^2): 88.9 ± 4.6%
bioavailability ([2]; 4 mg, Table 17 # 5: dose 4.00 mg, 4 mJ/filament, 2.0 cm^2, 400 filaments/cm^2): 105 ± 7.9%
bioavailability ([2]; 4 mg, Table 17 # 6: dose 4.00 mg, 5 mJ/filament, 1.5 cm^2, 400 filaments/cm^2): 97.9 ± 12.3%
AUC [2, 7]: 364 ± 23 ng·h/mL
Cmax [2, 7]: 190 ± 34 ng/mL
Tmax [2, 7]: 37.8 ± 7.8 min
AUC [2, 8]: 238 ± 13 ng·h/mL
Cmax [2, 8]: 60 ± 13 ng/mL
Tmax [2, 8]: 165 ± 75 min
AUC [2, 9]: 1520 ± 177 ng·h/mL
Cmax [2, 9]: 520 ± 51 ng/mL
Tmax [2, 9]: 78.6 ± 11.4 min
AUC [2, 10]: 1750 ± 116 ng·h/mL
Cmax [2, 10]: 487 ± 63 ng/mL
Tmax [2, 10]: 97.8 ± 7.8 min
AUC [2, 11]: 1040 ± 113 ng·h/mL
Cmax [2, 11]: 222 ± 30 ng/mL
Tmax [2, 11]: 165 ± 43.2 min
AUC [2, 12]: 1030 ± 159 ng·h/mL
Cmax [2, 12]: 423 ± 30 ng/mL
Tmax [2, 12]: 48.6 ± 3.6 min
AUC [2, 13]: 2100 ± 275 ng·h/mL
Cmax [2, 13]: 896 ± 191 ng/mL
Tmax [2, 13]: 63.6 ± 9.6 min
AUC [2, 14]: 1490 ± 206 ng·h/mL
Cmax [2, 14]: 484 ± 130 ng/mL
Tmax [2, 14]: 140 ± 49.8 min
AUC [2, 15]: 1750 ± 116 ng·h/mL
Cmax [2, 15]: 487 ± 63 ng/mL
Tmax [2, 15]: 97.8 ± 7.8 min
AUC [2, 16]: 2100 ± 275 ng·h/mL
Cmax [2, 16]: 896 ± 191 ng/mL
